In patent US20150231045A1, “ANTI-DANDRUFF COMPOSITION COMPRISING 1-ACETOXYCHAVICOL ACETATE” (AnalytiCon Discovery GmbH, priority 2012, published 2015):
≈ marks a conversion by molar mass, not a printed value.

How the values were obtained:
[1] = system: Malassezia sympodialis ATCC 42132; assay: Mid-log assay (compound added at half-maximum OD580); type: cell-based, Malassezia sympodialis (former M. furfur); details: Example 7; for inhibition at 12.5 µg/mL: Malassezia sympodialis, ATCC42132, read-out: Mid-log Assay %-inhibition compared to benchmark
Procedure: Cells are cultivated to half-maximal OD580 before test compounds are added (arrow). Value of OD580 at time of sample application is set 100%. […] Blue diamonds, untreated control cells; pink rectangles, cells treated with test compounds.
(§1) General Assay Conditions • 1. Strain: Malassezia sympodialis ATCC 42132 • 2. Growth conditions: • Sabouraud-medium supplemented with dextrose (20 g/l), Tween 80 (1%) and glycerol-monostearat (emulsifier; 0.05%). Static incubation in flat-bottom 96-well microtiterplates (total volume 340 μl, working volume 200 μl; surface area 148 mm2). Incubation at 33° C. in humid atmosphere (wet-box) to avoid dessication. Incubation periods vary according to the assay format. Suspensions used for inoculation were adjusted to an optical density (OD580) of 0.1 • 3. […] Controls • Sterile media was used as negative control; cells cultivated in absence of any test compound but in presence of equal amounts of DMSO compared to samples (see below) were regarded as positive control (unrestricted growth) • 5. All compounds (test-samples and references) are dissolved in DMSO. […] Unless otherwise stated, test compound concentration was 12.5 μg/ml
For the so called “mid-log assay”, cells are grown to half-maximum optical density before test compounds are added. […] Numbers for OD580 of untreated control samples and samples treated with test compounds are compared to t0-value, which is defined as the 100% level. The value for OD580 of the untreated control sample in stationary phase (end of experiment) is defined as the “control-level” (for unrestricted growth). Values for control-levels are solely dependent on t0-values and therefore vary with each experiment; thus, they cannot be standardised.
Exponentially growing cells (mid-log) are in a defined active state with respect to proliferation and metabolic activity. […] Moreover, the mode of inhibition caused by the test compound can be determined (see above).

[2] = system: Malassezia sympodialis ATCC 42132; assay: Classic assay for susceptibility testing of planktonically growing cells (OD580); type: cell-based, Malassezia sympodialis (former M. furfur); details: for inhibition at 12.5 µg/mL: read-out: Classic Assay, planktonic growth, inhibition
Procedure: Routine cultivation of M. sympodialis: M. sympodialis (former M. furfur) CBS 1878 was obtained from the Centraalbureau voor Schimmelcultures Fungal Biodiversity Centre. It was routinely grown on Dixon-agar plates in a humid atmosphere (“wet box”) at 33° C., or in Sabouraud-Maltose (SM) broth complemented with Tween80 and Glycerin-monostearate for liquid cultures in shake-flasks (300 ml operated with 50 ml medium) with agitation (150 rpm).
as §1
Routine susceptibility testing of M. sympodialis in high throughput format was done by simultaneous addition of test compounds and inoculum. Seven days after inoculation and when planktonic growth of the untreated control ceased, the effect of the test compounds was evaluated by comparison of the turbidity (optical density, OD580) of treated and untreated samples (control; 100%).
The classic assay is the platform to determine dose-response relationships, where serial dilutions of compounds are evaluated. For description of these relationships, values for the minimal effective concentration and the concentration effective in reducing cell proliferation by 50% (IC50) are generated.

[3] = 12.5 μg/ml unless otherwise stated
[4] = Malassezia sympodialis, ATCC42132, Example 7, 12.5 μg/ml unless otherwise stated

Row | IC50 ([2]; Malassezia sympodialis, ATCC42132, serial dilutions, classic assay, read-out: IC50 (concentration reducing cell proliferation by 50%), planktonic growth) | Compound | Mid-log Assay Level-% ([1]; OD580 at addition = 100%, Control-level 399) | inhibition at 12.5 µg/mL [1, 3] | inhibition at 12.5 µg/mL [2, 4] | Mid-log Assay %-inhibition compared to benchmark [1, 3] | Classic Assay, planktonic growth, inhibition ([2]; Example 7, 12.5 μg/ml unless otherwise stated) | IC50 (concentration reducing cell proliferation by 50%), planktonic growth ([2]; serial dilutions, classic assay)
1 |  | C=CC(OC(C)=O)c1ccc(OC(C)=O)cc1 (stereo not drawn) [1-acetoxychavicol, 1-acetoxychavicol acetate] | 379% | 11% | 61% |  |  | 
2 | 0.2 µg/mL (≈ 0.683 µM) | CC(C)(C)C(=O)C(Oc1ccc(Cl)cc1)n1ccnc1 (stereo not drawn) [Crinipan, climbazole] |  | 66% | 93% |  |  | 
3 |  | Zinc Pyrithione |  |  |  | 16% | 73% inhibition | 12.4 µg/mL
